Where “and” joins values, the source holds several entries; their conditions need not be identical. Equal entries are not always repeated. Square brackets hold non-standard residues; d marks the D form. Peptide text beside a SMILES is read from it.

Two compounds from paper PMC10545747, “Development of cyclopeptide inhibitors of cGAS targeting protein-DNA interaction and phase separation” (Nature Communications, 2023) can be followed below.

One assay deals with T1, hcGAS-FL and Cy3-ISD (Homo sapiens, UniProt Q8N884).
T1 construct: The gene encoding full-length human cGAS (hcGAS-FL); 6xHis-SUMO (N, cleaved yes); made in house; host or cells: Escherichia coli BL21 (DE3)
In words: In vitro phase separation assay (cGAS-DNA condensates). Format: biochemical. As to conditions: for Droplets (%), Fig. S6b: hcGAS-FL 100nM, Cy3-ISD 100nM; for Droplets (%), Fig. 4e: hcGAS-FL 500 nM, Cy3-ISD 500 nM; for Droplets (%), Fig. S6d: hcGAS-FL 1 μM, Cy3-ISD 1 μM. On the procedure:
Purified hcGAS-FL and Cy3-labeled DNA (Cy3-ISD) with the indicated concentrations were mixed with DMSO (0.1%) or indicated doses of XQ2 in 96-well plates (JingAn Biological) pre-coated with 20 mg/ml BSA (Sigma). Mixtures were incubated in buffer (20 mM Tris-HCl, pH 7.5, 150 mM NaCl and 1 mg/ml BSA) with standing at 37 °C in a total reaction volume of 50 μL. Phase-separated droplets were imaged at the indicated time by using Nikon A1R+ confocal microscope with a 60× oil objective, Nikon A1 camera, and X-Cite 120LED laser. Images were analyzed using FIJI software. The number of droplets was measured as the percentage of the imaging area occupied by Cy3-labeled components, and was plotted using GraphPad Prism 8.

Another assay deals with hcGAS-FL + FAM-ISD (Homo sapiens, UniProt Q8N884). In words: biochemical. The procedure:
Purified hcGAS-FL (300 nM) or hcGAS-FL (D191R) (300 nM) and FAM-labeled DNA (FAM-ISD) (40 nM) were incubated with or without XQ2 in buffer (20 mM HEPSE, pH 7.5, 125 mM KCl, 10 mM MgCl2). Samples were dispensed in 30 μ L final volumes per well into a 384-well flat-bottom black plate (Corning 3575). The polarization was detected by a microplate reader (BioTek Synergy H1) with a fluorescence polarization filter cube (excitation wavelength: 485 ± 10 nm; emission wavelength: 528 ± 10 nm) immediately.

Assay [1] concerns primary bone marrow-derived macrophages (BMDMs) from C57BL/6 mice. In words: qPCR of Ifnb1/Cxcl10 mRNA in BMDMs (ISD or HSV-1). Format: cell-based, mouse. The procedure:
The indicated cells were stimulated with either ISD (Sangon Biotech), HSV-1 (Provided by Dr. Zhengfan Jiang), HSV60mer (Sangon Biotech), SATE-cddA[70], 2’3’-cGAMP (Invivogen, Cat# tlrl-nacga23-1), ADU-S100 (MedChemExpress, Cat# HY-12885A) or Poly(I:C) (Invivogen, Cat# tlrl-pic) after XQ2 or XQ2B treatment. Total RNA was isolated from indicated cells that incubated with the drugs for indicated time or mice tissues by using NucleoZOL reagent (MACHEREY-NAGEL) according to the manufacturer’s instructions. The quantifications of mRNA levels were carried out by real-time PCR using a PerfectStart® Uni RT&qPCR Kit (TransGen Biotech) on the QuantStudio 5 qPCR machine (Applied Biosystems). Samples were carried out in triplicate and the target CT values were normalized to GAPDH CT values. Primers of qPCR used in this study can be found in Supplementary Table S2.
C57BL/6 6–8 weeks old wild type (WT) mice were purchased from Gempharmatech. C57BL/6 Trex1^+/- mice were purchased from Cyagen. Trex1^-/- mice were generated by further mating the male and female Trex1^+/- mice, and 8-week-old male Trex1^-/- mice were used in the experiment. Mice were housed in groups of up to 5 mice/cage at 18 °C − 24 °C ambient temperatures with 40–60% humidity. Mice were maintained on a 12 h light/ dark cycle 6 am to 6 pm. Food and water were available ad libitum. Femurs and tibias were removed from sex-matched mice of 6–8 weeks old, and the ends were clipped. Marrow was pushed from bones by using a syringe, and cell clumps were broken apart into cell particles by pipetting in PBS, and passed through a 70 μm cell strainer. Cells were resuspended in red blood cell lysis buffer (Solarbio) for 5 min after being centrifuged with 200 × g for 5 min, and were resuspended in cell culture media (DMEM) with an additional M-CSF (50 ng/ml) after centrifugation, and then were seeded into a 12-well plate. Half of the cell culture media was replaced with a fresh medium on the third day, and performed a complete media change on the fifth day. BMDMs were used for subsequent experiments after the seventh day. All the animal experiments in these studies were approved and overseen by the ethics committee of the Laboratory Animal Center of Peking University Shenzhen Graduate School in accordance with the Policy on the Care, Welfare, and Treatment of Laboratory Animals. The assigned approval or accreditation number is AP0020005.
Supplementary Fig. 2. […] (a, b) THP1 cells were
(c) L929, p = 0.0005 (Ifnb1),
BMDMs, p = 0.0001 (Ifnb1), p < 0.0001 (Cxcl10).
representative of three independent experiments in (a-g). (Data are presented as mean ± SD, n = 3 independent
Source data are provided as a Source Data file.
On the technique in general: In qPCR the cycle at which signal appears reflects the starting amount.

Assay [2] deals with Cy5-ISD (45-bp dsDNA ISD). In words: Microscale thermophoresis (MST) with dsDNA. The note with it: Cy5-ISD 10 nM. Format: binding. In general terms: MST reads how a fluorescent partner responds to local heating, with and without ligand.
Experimental: Excitation was optimized by varying the power to obtain fluorescence intensities above 200 counts. Data were analyzed by using the MO.Affinity Analysis software.
A further assay deals with Jurkat cells. In words: Flow cytometry of apoptosis, Annexin V and PI staining. As to conditions: XQ2B +. Format: cell-based, human. The procedure:
Cell death was measured by Annexin V-FITC/PI Apoptosis Kit (Elabscience) according to the manufacturer’s instructions. Data were acquired on an Attune NxT (ThermoFisher) flow cytometer and analyzed in FlowJo.
Supplementary Fig. 8. XQ2B inhibits cGAS induced autophagy and cell death. (a) L929 cells were pretreated […]
measured by CCK8 assay. p = 0.0022. (c, d) Jurkat cells were treated with DMSO or XQ2B (5 μM), followed by stimulation with ISD (2ug/ml) for 4 h. Flow cytometric analysis of apoptosis assessed by Annexin V and PI staining.
Analysis strategy shown was used to determine the Annexin V+ or PI+ population (c). Numbers in quadrants present […]
percentages (d). p = 0.0006. […]
by HSV-1 infection for indicated titer and periods. Induction of HSV-1(UL5) mRNA was measured by qPCR. p = 0.0018 (1×10^4 pfu); p < 0.0001 (2×10^4 pfu). Data are representative of three independent experiments with similar results in (a), or three independent experiments in (b, d, e). (Data are presented as mean ± SD, n = 3 independent […]
are provided as a Source Data file.
(In general: In flow cytometry, cells or beads pass a laser one at a time.)

T1 sequence (Q8N884 whole entry): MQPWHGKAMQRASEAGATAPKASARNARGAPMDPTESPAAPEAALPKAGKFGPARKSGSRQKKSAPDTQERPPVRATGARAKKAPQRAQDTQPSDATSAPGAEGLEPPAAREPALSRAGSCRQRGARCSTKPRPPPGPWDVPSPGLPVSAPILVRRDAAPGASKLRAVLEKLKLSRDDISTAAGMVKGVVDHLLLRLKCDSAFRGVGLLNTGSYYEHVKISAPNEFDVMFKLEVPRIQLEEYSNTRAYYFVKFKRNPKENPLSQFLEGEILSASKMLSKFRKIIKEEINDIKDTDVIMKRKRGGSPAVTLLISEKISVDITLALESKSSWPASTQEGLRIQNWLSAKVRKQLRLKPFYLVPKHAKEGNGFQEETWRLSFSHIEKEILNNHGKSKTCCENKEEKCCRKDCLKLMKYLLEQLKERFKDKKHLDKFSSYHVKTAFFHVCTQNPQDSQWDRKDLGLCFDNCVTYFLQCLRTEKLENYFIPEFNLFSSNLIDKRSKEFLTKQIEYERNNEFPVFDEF
Chain of hcGAS-FL + FAM-ISD (Q8N884 whole entry): as above

Consider `CC(C)C[C@@H]1NC(=O)[C@H](CCCNC(=N)N)NC(=O)[C@H](C(C)C)NC(=O)[C@@H]2CCCN2C(=O)[C@@H](Cc2ccccc2)NC(=O)[C@H](CC(C)C)NC(=O)[C@H](CCCNC(=N)N)NC(=O)[C@H](C(C)C)NC(=O)[C@H](C)NC(=O)[C@@H](Cc2ccccc2)NC1=O` [XQ2, Cyclo (LfAVRLfPVR)] (cyclo(L[dF]AVRL[dF]PVR)), for which the “DNA-induced liquid phase condensation of cGAS” value on hcGAS-FL and Cy3-ISD was “efficiently suppressed DNA-induced liquid phase condensation of cGAS in a dose-dependent manner”. Further, on hcGAS-FL and Cy3-ISD (XQ2 10 μM), the “Droplets (%), Fig. S6b” value is 33.0922% and 37.8074% and 43.9421%; the “Droplets (%), Fig. S6d” value is 79.2214% and 80.5313% and 77.1189%. Further, at hcGAS-FL and Cy3-ISD (XQ2 20 μM), the “Droplets (%), Fig. S6b” value was 10.262% and 16.2032% and 13.5624%; the “Droplets (%), Fig. 4e” value is 40.7983% and 55.7848% and 51.751%; the “Droplets (%), Fig. S6d” value is 68.3204% and 65.6495% and 68.2188%. At hcGAS-FL and Cy3-ISD (XQ2 40 μM), the “Droplets (%), Fig. S6b” value is 8.642% and 8.102% and 4.321%; the “Droplets (%), Fig. 4e” value was 25.4542% and 20.5523% and 21.4459%; the “Droplets (%), Fig. S6d” value is 48.2853% and 49.5952% and 47.6049%. Besides, the “Droplets (%), Fig. 4e” value on hcGAS-FL and Cy3-ISD (30 min 37 °C, XQ2 10 μM) was 73.0692% and 66.6865% and 62.8824%. Moreover, the IC50 at hcGAS-FL + FAM-ISD was 19.2 ± 6.7 µM. Also, the “Ifnb1 and Cxcl10 expression induced by ISD and HSV-1” value in assay [1] (10 μM) was “significantly inhibited the expression of Ifnb1 and its downstream gene Cxcl10”. In assay [1] (HSV-1+XQ2), the “Cxcl10 mRNA (Fig. S2d)” value was 143.811 and 140.79 and 131.38; the “Ifnb1 mRNA (Fig. S2d)” value is 30.4765 and 34.353 and 35.6259. In assay [1] (ISD+XQ2), the “Cxcl10 mRNA (Fig. S2c)” value is 62.8779 and 59.0359 and 62.3708; the “Ifnb1 mRNA (Fig. S2c)” value is 709.298 and 846.919 and 741.167. In assay [1] (XQ2 alone), the “Cxcl10 mRNA (Fig. S2c)” value was 1.406 and 1.738 and 1.597; the “Cxcl10 mRNA (Fig. S2d)” value is 1.406 and 1.738 and 1.597; the “Ifnb1 mRNA (Fig. S2c)” value was 0.9266 and 0.5519 and 1.072; the “Ifnb1 mRNA (Fig. S2d)” value was 0.9266 and 0.5519 and 1.072. In assay [2], the “binding with ISD, MST” value is on record as “no binding of XQ2 with ISD”.
For `CC(C)C[C@@H]1NC(=O)[C@H](CCCNC(=N)N)NC(=O)[C@H](C(C)C)NC(=O)[C@@H]2CCCN2C(=O)[C@@H](Cc2ccccc2)NC(=O)[C@H](CC(C)C)NC(=O)[C@H](CCCNC(=N)N)NC(=O)[C@H]([C@@H](C)O)NC(=O)[C@H](C)NC(=O)[C@@H](Cc2ccccc2)NC1=O` [XQ2B] (cyclo([dF]ATRL[dF]PVRL)), the “Induced cell death(%) (Fig. S8d)” value with Jurkat cells (ISD +) is 18.8% and 19.1% and 18.5%; in the assay on Jurkat cells (ISD -) it was 3.9% and 3.8%.

What is called IC50 is the concentration needed to halve the response being measured.
